Measurements as given in patent US20230095520A1, “PHARMACEUTICAL COMPOSITION FOR PREVENTING OR TREATING CANCER COMPRISING AZOLE DERIVATIVES OR PHARMACEUTICALLY ACCEPTABLE SALT THEREOF” (Yungjin Pharm. Co., Ltd., priority 2020, published 2023).

Tests used:
[1] = target: T1, Recombinant purified human CDK7 (Homo sapiens, UniProt P50613); assay: CDK7 activity inhibition, ADP-Glo kinase assay; type: biochemical; conditions: ATP 90 μM, MBP substrate, 2 hours 30° C.
T1 construct: purchased ThermoFisher PV3868
T1 sequence (P50613 whole entry): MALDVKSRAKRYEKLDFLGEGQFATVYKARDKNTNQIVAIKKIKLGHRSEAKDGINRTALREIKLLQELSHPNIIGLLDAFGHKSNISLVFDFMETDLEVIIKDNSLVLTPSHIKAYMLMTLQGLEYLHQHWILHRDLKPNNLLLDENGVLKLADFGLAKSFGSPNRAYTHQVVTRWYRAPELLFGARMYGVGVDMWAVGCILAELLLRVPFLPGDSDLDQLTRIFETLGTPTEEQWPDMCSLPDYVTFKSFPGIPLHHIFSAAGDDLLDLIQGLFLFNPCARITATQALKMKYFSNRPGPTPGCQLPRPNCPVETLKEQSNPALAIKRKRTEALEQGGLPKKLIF
T1 sequence (P51946 whole entry partner): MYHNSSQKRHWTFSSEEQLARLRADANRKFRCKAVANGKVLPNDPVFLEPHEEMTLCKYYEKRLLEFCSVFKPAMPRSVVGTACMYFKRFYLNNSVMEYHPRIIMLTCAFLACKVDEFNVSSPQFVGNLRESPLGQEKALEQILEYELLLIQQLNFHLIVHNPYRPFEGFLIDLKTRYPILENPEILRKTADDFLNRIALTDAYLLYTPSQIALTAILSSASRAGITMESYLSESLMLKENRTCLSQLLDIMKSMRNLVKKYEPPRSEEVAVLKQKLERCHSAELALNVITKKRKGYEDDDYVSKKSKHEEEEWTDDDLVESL
T1 sequence (P51948 whole entry partner): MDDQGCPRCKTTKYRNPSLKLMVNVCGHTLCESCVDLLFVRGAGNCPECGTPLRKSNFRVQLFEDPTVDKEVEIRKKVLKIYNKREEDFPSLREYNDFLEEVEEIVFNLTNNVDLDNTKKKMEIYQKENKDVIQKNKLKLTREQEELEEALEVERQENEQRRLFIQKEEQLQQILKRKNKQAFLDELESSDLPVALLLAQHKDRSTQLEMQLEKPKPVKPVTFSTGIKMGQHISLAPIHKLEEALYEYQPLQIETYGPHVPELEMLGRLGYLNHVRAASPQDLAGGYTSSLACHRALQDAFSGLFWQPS
Protocol: Recombinant purified human CDK7 (ThermoFisher, PV3868) and ADP Glo Kinase Assay Kit (Promega, V9102) were used. CDK7 was diluted with 1× kinase reaction buffer (40 mM Tris-Cl, pH 7.5, 20 mM MgCl2, 0.1 mg/ml BSA and 50 μM DTT) and added to a 96 well plate (CDK7 final concentration per reaction: 50 ng). It was finally treated with the compound of the present invention to a 1% DMSO aqueous solution, and a substrate cocktail containing ATP (final concentration of 90 μM) and 0.2 μg/μl MBP (myelin basic protein) in a total of 25 μl reaction mass was added to a 96 well plate, thereby initiating the enzymatic reaction. After 2 hours of incubation (30° C.), an equal volume (25 μl per reaction) of ADP Glo was added and incubated at room temperature for 60 minutes (30° C.). Thereafter, kinase detection reagent (50 μl per reaction) was added and incubated at room temperature for 30 minutes (30° C.). The kinase activity was measured by the chemiluminescence method according to the ADP Glo Kinase Assay Kit instruction manual, and the CDK7 inhibitory activity of the compounds of the present invention was calculated.

MV-4-11 cells = assay: MV-4-11 cell proliferation inhibition (CCK-8); type: cell-based; conditions: Homo sapiens, 72 hours; for inhibition at 0.1 µM: MV4-11, MV-4-11, compound concentration 100 nM, read-out: Inhibition rate (%); for IC50: MV4-11, MV-4-11 proliferation
Protocol: MV-4-11 cells are one of the acute myeloid leukemia cells with a Fms-like tyrosine kinase (FLT3) gene mutation, and these cells are used to test inhibition of proliferation and survival of leukemia cells.
MV-4-11 cells cultured in a 96-well cell culture plate were treated with the compound of the present invention and cultured for 72 hours. Thereafter, the antiproliferative effect of the compound was assayed by the CCK-8 method using a tetrazolium salt.

`C=CC(=O)Nc1ccc(-c2cccc([C@H](C)C(=O)Nc3ncc(C4CC4)s3)c2)cn1` [Compound 14] was tested, and the IC50 [1] was 28 nM, the inhibition at 0.1 µM (MV-4-11 cells) was 100% and the IC50 (MV-4-11 cells) was 45.8 nM.
Work on `C[C@H](C(=O)Nc1ncc(C2CC2)s1)c1cccc(-c2ccc(NC(=O)/C=C/CN(C)C)nc2)c1` [Compound 15] yielded an IC50 [1] of 11 nM and an inhibition at 0.1 µM (MV-4-11 cells) of 100%.
Compound `C=CC(=O)Nc1cnc(-c2cccc([C@H](C)C(=O)Nc3ncc(C(F)(F)F)s3)c2)cn1` [Compound 37, (S)-N-(5-(3-(1-oxo-1-((5-(trifluoromethyl)thiazol-2-yl)amino)propan-2-yl)phenyl)pyrazin-2-yl)acrylamide] has an IC50 [1] of 17.8 nM and an inhibition at 0.1 µM (MV-4-11 cells) of 100%.
Work on `C=CC(=O)Nc1cnc(-c2cncc([C@H](C)C(=O)Nc3ncc(C(F)(F)F)s3)c2)cn1` [Compound 52, (S)-N-(5-(5-(1-oxo-1-((5-(trifluoromethyl)thiazol-2-yl)amino)propan-2-yl)pyridin-3-yl)pyrazin-2-yl)acrylamide] yielded an IC50 [1] of 19.2 nM and an IC50 (MV-4-11 cells) of 4.5 nM.
For `CCc1cnc(NC(=O)[C@@H](C)c2cccc(-c3cnc(NC(=O)/C=C/CN(C)C)c(C)c3)c2)s1` [Compound 125, (S,E)-4-(dimethylamino)-N-(5-(3-(1-((5-ethylthiazol-2-yl)amino)-1-oxopropan-2-yl)phenyl)-3-methylpyridin-2-yl)but-2-enamide], the IC50 [1] was 13.2 nM.
Compound `CCc1cnc(NC(=O)C2(c3cccc(-c4cnc(NC(=O)/C=C/CN(C)C)c(C#N)c4)c3)CC2)s1` [Compound 128, (E)-1-(3-(5-cyano-6-(4-(dimethylamino)but-2-enamido)pyridin-3-yl)phenyl)-N-(5-ethylthiazol-2-yl)cyclopropane-1-carboxamide] has an IC50 [1] of 50 nM.
With `CCc1cnc(NC(=O)C(CC)c2cccc(-c3ccc(NC(=O)/C=C/CN(C)C)cn3)c2)s1` (stereo not drawn) [Compound 131, (E)-4-(dimethylamino)-N-(6-(3-(1-((5-ethylthiazol-2-yl)amino)-1-oxobutan-2-yl)phenyl)pyridin-3-yl)but-2-enamide] the IC50 [1] was 59 nM.
In the case of `CCc1cnc(NC(=O)[C@@H](C)c2cccc(-c3cnc(N(C)C(=O)/C=C/CN(C)C)c(C#N)c3)c2)s1` [Compound 132, (S,E)-N-(3-cyano-5-(3-(1-((5-ethylthiazol-2-yl)amino)-1-oxopropan-2-yl)phenyl)pyridin-2-yl)-4-(dimethylamino)-N-methylbut-2-enamide], the IC50 [1] is reported as 6.6 nM.
For `CCc1cnc(NC(=O)C2(c3cccc(-c4cnc5c(c4)CCN5C(=O)/C=C/CN(C)C)c3)CC2)s1` [Compound 133, (E)-1-(3-(1-(4-(dimethylamino)but-2-enoyl)-2,3-dihydro-1H-pyrrolo[2,3-b]pyridin-5-yl)phenyl)-N-(5-ethylthiazol-2-yl)cyclopropane-1-carboxamide], the IC50 [1] was 47 nM.
`CCc1cnc(NC(=O)[C@@H](C)c2cccc(-c3cnc(NC(=O)/C=C/CN4CCOCC4)c(C#N)c3)c2)s1` [Compound 135, (S,E)-N-(3-cyano-5-(3-(1-((5-ethylthiazol-2-yl)amino)-1-oxopropan-2-yl)phenyl)pyridin-2-yl)-4-morpholinobut-2-enamide] was tested, and the IC50 [1] was 13 nM.
`CCc1cnc(NC(=O)[C@@H](C)c2cccc(-c3cnc(NC(=O)/C=C/CN4CCN(C)CC4)c(C#N)c3)c2)s1` [Compound 136, (S,E)-N-(3-cyano-5-(3-(1-((5-ethylthiazol-2-yl)amino)-1-oxopropan-2-yl)phenyl)pyridin-2-yl)-4-(4-methylpiperazin-1-yl)but-2-enamide] gave an IC50 [1] of 33 nM.
`CCc1cnc(NC(=O)C(C)c2cncc(-c3cnc(NC(=O)/C=C/CN(C)C)c(C#N)c3)c2)s1` (stereo not drawn) [Compound 137, (E)-N-(5-cyano-5′-(1-((5-ethylthiazol-2-yl)amino)-1-oxopropan-2-yl)-[3,3′-bipyridin]-6-yl)-4-(dimethylamino)but-2-enamide] showed an IC50 [1] of 13 nM.
In the case of `CCc1cnc(NC(=O)C(CC)c2cccc(-c3cnc(NC(=O)/C=C/CN(C)C)c(C#N)c3)c2)s1` (stereo not drawn) [Compound 138, (E)-N-(3-cyano-5-(3-(1-((5-ethylthiazol-2-yl)amino)-1-oxobutan-2-yl)phenyl)pyridin-2-yl)-4-(dimethylamino)but-2-enamide], the IC50 [1] is reported as 8 nM.
